Patent US12655185B2, “Peptide inhibitors of interleukin-23 and their use to treat inflammatory diseases” (Protagonist Therapeutics, Inc., priority 2016, dated 2026)
Values belong to the molecule of their own block, whether it stands above or below them. Bridge positions count the residues as written; N and C are the ends. Peptide text beside a SMILES is read from it.

Assays:
[1] = target: T1, IL-23 binding to IL23R_huFC (human IL-23R) (Homo sapiens, UniProt P29460+Q9NPF7); assay: IL23-IL23R Competitive Binding ELISA; conditions: inhibition of IL-23/IL-23R binding; IL-23 0.9 nM; class symbols; read-out: IC50 IL23R_huFC
T1 sequence (Q9NPF7 20-189): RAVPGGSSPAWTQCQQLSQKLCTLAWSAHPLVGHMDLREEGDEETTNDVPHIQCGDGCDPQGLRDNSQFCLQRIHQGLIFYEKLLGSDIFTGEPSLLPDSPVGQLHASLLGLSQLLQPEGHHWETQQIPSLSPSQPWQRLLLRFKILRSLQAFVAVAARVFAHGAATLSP
T1 sequence (P29460 23-328): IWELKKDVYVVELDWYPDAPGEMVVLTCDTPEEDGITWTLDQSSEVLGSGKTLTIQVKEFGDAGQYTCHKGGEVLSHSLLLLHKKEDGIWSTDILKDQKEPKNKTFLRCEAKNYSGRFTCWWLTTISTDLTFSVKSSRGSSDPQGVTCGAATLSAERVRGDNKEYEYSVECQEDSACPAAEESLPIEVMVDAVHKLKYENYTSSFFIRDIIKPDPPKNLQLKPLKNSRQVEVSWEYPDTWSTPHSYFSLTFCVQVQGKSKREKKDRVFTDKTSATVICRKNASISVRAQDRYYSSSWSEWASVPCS
Procedure: Immulon® 4HBX plate was coated with 200 ng/well of IL23R_huFC and incubated overnight at 4° C. […] Serial dilutions of test peptides and IL-23 at a final concentration of 0.9 nM diluted in PBS were added to each well and incubated for 2 hours at room temperature. After the wells were washed, bound IL-23 was detected by incubation with 50 ng/well of goat anti-p40 polyclonal antibodies (R&D Systems #AF309) diluted in PBS for 1 hour at room temperature. The wells were again washed four times with PBST. […] The plate was finally washed as above. Signals were visualized with TMB One Component HRP Membrane Substrate, quenched with 2 M sulfuric acid and read spectrophotometrically at 450 nm.

[2] = target: T2, IL-12 binding to human IL-12Rβ1_huFC (Homo sapiens, UniProt P29459+P29460); assay: Human IL12/IL12Rβ1 huFc ELISA
T2 sequence (P29459 23-219): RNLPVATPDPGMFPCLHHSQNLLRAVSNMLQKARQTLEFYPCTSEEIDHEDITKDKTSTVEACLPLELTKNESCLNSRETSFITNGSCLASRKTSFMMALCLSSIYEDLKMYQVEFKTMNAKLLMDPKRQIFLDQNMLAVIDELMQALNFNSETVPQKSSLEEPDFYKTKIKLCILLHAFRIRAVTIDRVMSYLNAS
T2 sequence (P29460 23-328): T1 sequence (P29460 23-328)
Procedure: (§1) The ability of Peptide 10 to block binding of IL-23 to IL-12Rβ1 or binding of IL-12 to IL-12Rβ1 was also determined. Human IL-12Rβ1 ELISA assays were performed as follows: an assay plate was coated with 100 ng/well of human IL-12Rβ1_huFC and incubated overnight at 4° C. The wells were washed, blocked, and washed again. Serial dilutions of test peptides and either IL-23 or IL-12 at a fixed concentration corresponding to EC50 values were added to each well, and incubated for 2 hours at room temperature. After the wells were washed, bound IL-23 were detected with goat anti-p40 polyclonal antibodies followed by an HRP conjugated donkey anti-goat IgG, and bound IL-12 were detected with a biotin conjugated anti-p40 monoclonal antibody followed by HRP conjugated streptavidin. Signals were visualized with TMB One Component HRP Membrane Substrate and quenched with 2 M sulfuric acid.

[3] = system: human IL-23-dependent release of IL-17 from mouse splenocytes; assay: Mouse splenocyte assay; format: cell-based; conditions: IL-17A release; IL-23 20 ng/mL; 67 hours
Procedure: Frozen mouse splenocytes (Hooke Lab), suspended in RPMI Medium 1640 (Life technologies #22400-089) supplemented with 10% heat inactivated FBS (Life technologies #16140-071), 1×MEM Non-Essential Amino Acid Solution (Life technologies #11140-050), 1 mM sodium pyruvate (Life technologies #11360-070), 100 units of Penicillin-Streptomycin (Life technologies #15140-122, 0.05 mM 2-mercaptoethanol (Life technologies #21985-023) and recombinant human IL-2 (R&D Systems #202-IL-010/CF), were seeded at 4×10E5 cells/well in a 96 well tissue culture plate. Serial dilutions of test peptides and IL-23 at a final concentration of 20 ng/mL were preincubated in a separate assay plate for 60 minutes at 37° C. in a 5% CO2 humidified incubator. Preincubated samples were then added to the culture plate containing splenocytes and incubated for an additional 67 hours at 37° C. in a 5% CO2 humidified incubator. A sandwich ELISA kit for mouse IL17A (Biolegend #436204) was used to measure the amount of IL-17A in each sample supernatants, according to manufacturer's instructions.

[4] = target: IL-13 binding to IL-13Ra1 (Homo sapiens, UniProt P35225); assay: Binding of IL-13 to IL-13Ra1; conditions: data not shown
IL-6 binding to IL-6R = IL-6 binding to IL-6R (Homo sapiens, UniProt P05231); assay: Binding of IL-6 to IL-6R; conditions: data not shown
[5] = target: T3, IL-23 binding to human IL-12Rβ1_huFC (Homo sapiens, UniProt P29460+Q9NPF7); assay: Human IL23/IL12Rβ1 huFc ELISA; conditions: for blocking of binding of IL-23 to IL-12Rβ1: result in words
T3 sequence (Q9NPF7 20-189): T1 sequence (Q9NPF7 20-189)
T3 sequence (P29460 23-328): T1 sequence (P29460 23-328)
Procedure: as §1

[6] = target: T4, mouse IL-23 binding to mouse IL-23R (Mus musculus, UniProt P43432+Q9EQ14); assay: Mouse IL23/IL23R huFc ELISA; conditions: data not shown
T4 sequence (Q9EQ14 22-196): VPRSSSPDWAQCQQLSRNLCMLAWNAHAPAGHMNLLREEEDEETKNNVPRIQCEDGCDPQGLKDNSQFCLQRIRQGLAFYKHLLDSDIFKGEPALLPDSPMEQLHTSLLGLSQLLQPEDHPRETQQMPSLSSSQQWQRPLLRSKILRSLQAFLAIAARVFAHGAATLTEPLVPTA
T4 sequence (P43432 23-335): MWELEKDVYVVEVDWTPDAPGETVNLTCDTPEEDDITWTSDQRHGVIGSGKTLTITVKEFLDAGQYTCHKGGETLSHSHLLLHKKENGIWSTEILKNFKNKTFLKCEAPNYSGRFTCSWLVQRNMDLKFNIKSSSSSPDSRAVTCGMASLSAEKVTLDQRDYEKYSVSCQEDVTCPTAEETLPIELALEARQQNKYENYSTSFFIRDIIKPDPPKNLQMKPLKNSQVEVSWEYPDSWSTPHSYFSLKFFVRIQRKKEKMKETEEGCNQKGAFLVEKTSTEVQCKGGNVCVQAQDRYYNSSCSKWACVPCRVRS
Procedure: Certain peptides were tested to identify peptides that inhibit the binding of IL-23 to human IL-23R or mouse IL-23R, and inhibit IL-23/IL-23R functional activity, as described below. Each of these peptides comprised a disulfide bond between X5 and X34, except for Peptide 1, which comprises a disulfide bond between X4 and X33.

Molecule: CC[C@H](C)[C@@H]1NC(=O)[C@H](CCCCN)NC(=O)[C@H](C)NC(=O)[C@H](Cc2c[nH]c3ccccc23)NC(=O)[C@H](CCCNC(=N)N)NC(=O)[C@H](CCC(N)=O)NC(=O)[C@H](CCC(=O)O)NC(=O)[C@H](CCC(N)=O)NC(=O)[C@H](CC(N)=O)NC(=O)[C@H](CC(C)C)NC(=O)[C@H](CC(N)=O)NC(=O)[C@@H]2CCCN2C(=O)[C@H](CC(=O)O)NC(=O)[C@H](C(C)C)NC(=O)CNC(=O)[C@H](C)NC(=O)[C@H](CCC(=O)O)NC(=O)[C@H](CO)NC(=O)[C@H](C)NC(=O)[C@H](CCCNC(=N)N)NC(=O)[C@H](CCCNC(=N)N)NC(=O)[C@H](CC(C)C)NC(=O)[C@@H](NC(=O)[C@H](CCC(N)=O)NC(=O)[C@H](CCSC)NC(=O)[C@H](CC(N)=O)NC(=O)[C@H](Cc2ccccc2)NC(C)=O)CSSC[C@@H](C(N)=O)NC(=O)[C@H](CC(=O)O)NC(=O)[C@H](CC(=O)O)NC(=O)[C@H](CCSC)NC(=O)[C@H]([C@@H](C)CC)NC(=O)[C@H](CO)NC(=O)[C@H](CCCCN)NC1=O [Peptide 12] (Ac-FNMQCLRRASEAGVDPNLNQEQRWAKIKSIMDDC-NH2; disulfide 5-34)
- IC50 [1]: 1 to 10 µM

Molecule: Ustekinumab: a humanized antibody that binds IL-23 (p40 subunit), approved for the treatment of psoriasis [reference compound]
- Mouse splenocyte assay [3]: 0.06 µg/mL
- blocking of binding of IL-23 to IL-12Rβ1 [5]: blocked

Molecule: CC[C@H](C)[C@@H]1NC(=O)[C@H](CCCCN)NC(=O)[C@H](C)NC(=O)[C@H](Cc2c[nH]c3ccccc23)NC(=O)[C@H](CCCNC(=N)N)NC(=O)[C@H](CCC(N)=O)NC(=O)[C@H](CCC(=O)O)NC(=O)[C@H](CCC(N)=O)NC(=O)[C@H](CC(N)=O)NC(=O)[C@H](CC(C)C)NC(=O)[C@H](CC(N)=O)NC(=O)[C@@H]2CCCN2C(=O)[C@H](CC(=O)O)NC(=O)[C@H](C(C)C)NC(=O)CNC(=O)[C@H](C)NC(=O)[C@H](CCC(=O)O)NC(=O)[C@H](CO)NC(=O)[C@H](CCSC)NC(=O)[C@H](CCCNC(=N)N)NC(=O)[C@H](CCCNC(=N)N)NC(=O)[C@H](CC(C)C)NC(=O)[C@@H](NC(=O)[C@H](CCC(N)=O)NC(=O)[C@H](CCSC)NC(=O)[C@H](CC(N)=O)NC(=O)[C@H](Cc2ccccc2)NC(C)=O)CSSC[C@@H](C(N)=O)NC(=O)[C@H](CC(=O)O)NC(=O)[C@H](CC(=O)O)NC(=O)[C@H](CCSC)NC(=O)[C@H]([C@@H](C)CC)NC(=O)[C@H](CO)NC(=O)[C@H](C)NC1=O [Peptide 22] (Ac-FNMQCLRRMSEAGVDPNLNQEQRWAKIASIMDDC-NH2; disulfide 5-34)
- IC50 [1]: 1 to 10 µM

More lines, now with the values ahead:

- IC50 [1]: 1 to 10 µM
- IC50 ([2]; competition binding, IL-12 at EC50, read-out: Human IL12/IL12Rβ1huFc ELISA): > 100 µM
- blocking of binding of IL-12 to IL12Rβ1 ([2]; result in words): did not block
- IC50 [3]: 1.6 µM
- blocking of binding of IL-13 to IL-13Ra1 [4]: did not block
- blocking of binding of IL-6 to IL-6R (IL-6 binding to IL-6R): did not block
- IC50 ([5]; competition binding, IL-23 at EC50): > 100 µM
- blocking of binding of IL-23 to IL-12Rβ1 [5]: did not block
- blocking of binding of mouse IL-23 to mouse IL-23R [6]: blocked
Molecule: CC[C@H](C)[C@@H]1NC(=O)[C@H](CCCCN)NC(=O)[C@H](C)NC(=O)[C@H](Cc2c[nH]c3ccccc23)NC(=O)[C@H](CCCNC(=N)N)NC(=O)[C@H](CCC(N)=O)NC(=O)[C@H](CCC(=O)O)NC(=O)[C@H](CCC(N)=O)NC(=O)[C@H](CC(N)=O)NC(=O)[C@H](CC(C)C)NC(=O)[C@H](CC(N)=O)NC(=O)[C@@H]2CCCN2C(=O)[C@H](CC(=O)O)NC(=O)[C@H](C(C)C)NC(=O)CNC(=O)[C@H](C)NC(=O)[C@H](CCC(=O)O)NC(=O)[C@H](CO)NC(=O)[C@H](CCSC)NC(=O)[C@H](CCCNC(=N)N)NC(=O)[C@H](CCCNC(=N)N)NC(=O)[C@H](CC(C)C)NC(=O)[C@@H](NC(=O)[C@H](CCC(N)=O)NC(=O)[C@H](CCSC)NC(=O)[C@H](CC(N)=O)NC(=O)[C@H](Cc2ccccc2)NC(C)=O)CSSC[C@@H](C(N)=O)NC(=O)[C@H](CC(=O)O)NC(=O)[C@H](CC(=O)O)NC(=O)[C@H](CCSC)NC(=O)[C@H]([C@@H](C)CC)NC(=O)[C@H](CO)NC(=O)[C@H](CCCCN)NC1=O [Peptide 10] (Ac-FNMQCLRRMSEAGVDPNLNQEQRWAKIKSIMDDC-NH2; disulfide 5-34)

- IC50 [1]: < 1 µM
Molecule: CC[C@H](C)[C@@H]1NC(=O)[C@H](CCCCN)NC(=O)[C@H](C)NC(=O)[C@H](Cc2c[nH]c3ccccc23)NC(=O)[C@H](CCCNC(=N)N)NC(=O)[C@H](CCC(N)=O)NC(=O)[C@H](CCC(=O)O)NC(=O)[C@H](CCC(N)=O)NC(=O)[C@H](CC(N)=O)NC(=O)[C@H](CC(C)C)NC(=O)[C@H](CC(N)=O)NC(=O)[C@@H]2CCCN2C(=O)[C@H](CC(=O)O)NC(=O)[C@H](C(C)C)NC(=O)CNC(=O)[C@H](C)NC(=O)[C@H](CCC(=O)O)NC(=O)[C@H](C)NC(=O)[C@H](CCSC)NC(=O)[C@H](CCCNC(=N)N)NC(=O)[C@H](CCCNC(=N)N)NC(=O)[C@H](CC(C)C)NC(=O)[C@@H](NC(=O)[C@H](CCC(N)=O)NC(=O)[C@H](CCSC)NC(=O)[C@H](CC(N)=O)NC(=O)[C@H](Cc2ccccc2)NC(C)=O)CSSC[C@@H](C(N)=O)NC(=O)[C@H](CC(=O)O)NC(=O)[C@H](CC(=O)O)NC(=O)[C@H](CCSC)NC(=O)[C@H]([C@@H](C)CC)NC(=O)[C@H](CO)NC(=O)[C@H](CCCCN)NC1=O [Peptide 13] (Ac-FNMQCLRRMAEAGVDPNLNQEQRWAKIKSIMDDC-NH2; disulfide 5-34)
